For one experiment, the system named is p38 MAPK. In words: LPS-induced phospho-p38 MAPK in RAW264.7 cells, immunoblot. Format: cell-based, murine. The conditions noted are these: peptide 5 μM, 10 ng/ml LPS 5, 30 or 60 min. The method, then:
FIGS. 28A and B are immunoblots showing the effect of A464 on LPS-induced appearance of phospho-p38 MAPK in murine RAW264.7. Cells were set up as for FIG. 24 above and 5 μM A467 (SEQ ID NO. 23) or A464 (SEQ ID NO. 20) were added to the wells 1 hour before stimulation. Cells were stimulated with 10 ng/ml LPS for a period of 5, 30 or 60 min, then harvested and lysed. Proteins were resolved by SDS-PAGE, and transferred membranes immunoblotted for phospho-p38 (A) or total p38 (B). The blots shown are representative of two experiments;
RAW264.7 cells were seeded at a density of 1×10^5 cells/ml in 6 well plates. After treatment with peptides and agonists, as described above in relation to the Figs, the medium was removed and the cells were washed once with PBS before scraping them in 100 μl lysis buffer (100 mM NaCl, 50 mM HEPES (pH 7.5), 1 mM EDTA, 0.5% NP-40, 10% Glycerol) and incubating them on ice for 40 min. Samples were spun at 15,000×g for 10min and supernatants collected and stored at −20° C. […] The protein concentration was determined by monitoring the change in the solution absorbance at 280 nm using a spectrophotometer compared to protein standards. […] Thereafter, the membranes were washed, incubated in appropriate secondary antibody and then developed using standard enhanced chemi-luminescence (ECL) reagents. […]
A general note: A western blot detects proteins with antibodies after separation by electrophoresis.

The next experiment has as its target T1, TLR7 (Mus musculus, UniProt P58681).
T1 sequence (P58681 27-1050): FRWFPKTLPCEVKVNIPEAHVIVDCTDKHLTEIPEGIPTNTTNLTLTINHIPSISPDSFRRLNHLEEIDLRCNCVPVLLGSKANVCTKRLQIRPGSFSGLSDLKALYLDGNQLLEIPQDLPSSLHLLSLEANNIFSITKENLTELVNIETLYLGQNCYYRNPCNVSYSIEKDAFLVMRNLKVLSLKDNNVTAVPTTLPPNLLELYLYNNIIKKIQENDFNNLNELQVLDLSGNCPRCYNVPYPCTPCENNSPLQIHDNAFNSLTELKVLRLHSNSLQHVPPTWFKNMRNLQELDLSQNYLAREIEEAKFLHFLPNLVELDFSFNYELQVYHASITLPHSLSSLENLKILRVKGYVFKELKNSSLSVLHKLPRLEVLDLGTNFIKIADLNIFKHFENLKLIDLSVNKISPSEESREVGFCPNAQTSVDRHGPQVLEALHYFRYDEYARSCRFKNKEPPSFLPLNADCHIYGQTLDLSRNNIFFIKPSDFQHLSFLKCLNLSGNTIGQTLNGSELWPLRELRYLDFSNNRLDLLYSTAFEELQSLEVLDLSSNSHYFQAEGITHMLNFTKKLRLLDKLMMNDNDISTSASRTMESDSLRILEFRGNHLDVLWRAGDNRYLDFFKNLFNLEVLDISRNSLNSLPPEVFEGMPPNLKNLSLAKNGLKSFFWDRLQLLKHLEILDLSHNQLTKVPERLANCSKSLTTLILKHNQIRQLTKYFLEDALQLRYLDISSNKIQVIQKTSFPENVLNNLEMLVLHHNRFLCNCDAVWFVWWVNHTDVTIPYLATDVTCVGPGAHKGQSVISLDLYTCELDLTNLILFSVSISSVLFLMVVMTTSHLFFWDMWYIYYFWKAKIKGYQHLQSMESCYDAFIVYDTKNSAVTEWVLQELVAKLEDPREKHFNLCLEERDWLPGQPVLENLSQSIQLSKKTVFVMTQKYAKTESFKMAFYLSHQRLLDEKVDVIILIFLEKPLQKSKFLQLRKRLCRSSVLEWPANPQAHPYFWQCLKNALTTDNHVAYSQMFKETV
In words: murine TLR7 response. Type of experiment: cell-based.

Regarding KYSFKLILAEYRRRRRRRRR [Peptide A464], in the experiment with p38 MAPK, the “inhibition of LPS-induced p38 phosphorylation” value is “very potent inhibition of LPS-induced p38 phosphorylation at all the time points”. For the same sequence, the “inhibition of murine TLR7” value in the experiment with TLR7 was “insensitive”.

For the origin of these results see patent publication US8722052B2, “Vaccinia virus protein A46 peptide and use thereof” (priority 2008, dated 2014).
